Patent US8835631B2, “Therapeutic agent for cerebral infarction” (Mitsubishi Tanabe Pharma Corporation, priority 2007, dated 2014)

Experiments:
[1] = tested on: rat middle cerebral artery occlusion-reperfusion model; assay: Cerebral infarction volume in rat middle cerebral artery occlusion-reperfusion model; assay type: in vivo, male Wistar rats; settings: 10 mg/kg intravenously 30 min after occlusion, reperfusion 90 min after occlusion, brain isolated 24 hr later, TTC stain; FIG. 7
Description: The middle cerebral artery of male Wistar rats (Japan Laboratory Animals Inc.) was obstructed with suture (silicon-coated nylon thread), and saline (Vehicle, n=7), test compound A (10 mg/kg, n=6) dissolved in saline, test compound B ([…], n=7) dissolved in saline, and test compound C (10 mg/kg, n=7) dissolved in saline were each intravenously administered in 30 min after occlusion and the artery was reperfused in 90 min after occlusion. The brain was isolated 24 hr later. A 2 mm brain strip was prepared, and the strip was stained with PBS (pH 7.4, 37° C.) containing 1% 2,3,5-triphenyltetrazolium chloride (TTC, Wako Pure Chemical Industries, Ltd.). The cerebral infarction area was measured by image analysis and the cerebral infarction volume was calculated.

[2] = Evaluation of bioavailability in rat; assay type: in vivo, male SD(IGS) rats; settings: plasma; for AUC0-last / AUC0-∞ / Cmax at 5 min / Cmax: Mean + SD; for Cmax at 5 min / bioavailability / Cmax: male, SD(IGS); for Cmax at 5 min: iv, read-out: Cmax (C5 min, plasma concentration at 5 min after administration); for bioavailability: oral, 3 mg/kg p.o. vs 3 mg/kg i.v., F = (AUC0-∞,p.o./AUC0-∞,i.v.,mean) × (Dosei.v./Dosep.o.) × 100; for Cmax: po, read-out: Cmax
Description: Test compound A, test compound B and test compound C were each dissolved in 0.5% aqueous HPMC (hydroxypropyl methylcellulose) solution in the case of oral administration, or in saline in the case of intravenous administration, and they were orally or intravenously administered to male SD(IGS) rats (Charles River Laboratories Japan) by 3 mg/kg. The concentration of unchanged drug in the plasma of each rat was measured, and bioavailability (F(%)) was calculated (F (%)=(AUC0-∞,p.o./AUC0-∞,i.v.,mean)×(Dosei.v./Dosep.o.)×100). The test compound was administered by gavage using an oral gavage needle (p.o.), or administered in the tail vein (i.v.). The blood samples were collected at 15 and 30 min, 1, 2, 4, 6, 8 and 24 hr after administration in the case of oral administration, and 5 and 30 min, 1, 2, 4, 6, 8 and 24 hr after administration in the case of intravenous administration.
The results are shown in Tables 4 (test compound A), 5 (test compound B) and 6 (test compound C). The Cmax values for i.v. in Tables 4, 5 and 6 show plasma concentration at 5 min after administration.

IL-6 = IL-6 production in LPS-administered mouse; assay type: in vivo, male BALB/c mouse; settings: for IL-6 production in LPS model mouse (in words): 10 mg/kg orally 30 min before LPS; for IL-6 production (%): 10 mg/kg orally 30 min before LPS 500 μg/kg i.p., plasma 90 min after LPS, ratio to group without test compound
Description: (§1) LPS (lipopolysaccharide, derived from E. coli 0111:B4, Sigma, 500 μg/kg) was intraperitoneally administered to male BALB/c mouse (Charles River Laboratories Japan). After 90 min after LPS administration, the blood was taken under anesthesia, and centrifuged to collect plasma. TNF-α was measured using an Immunoassay Kit (R&D Systems) and IL-10, MCP-1 and IL-6 were measured using an Immunoassay Kit (BIOSOURCE). Test compound A, the compound synthesized in Example 3 (test compound B) and the compound synthesized in Example 7 (test compound C) were dissolved in saline, and the mixture was orally administered at 10 mg/kg 30 min before LPS administration. As shown in the Tables, the effect of each test compound on respective […] cytokines was calculated as the ratio of each cytokine concentration in the blood of the group administered with each test compound to each cytokine concentration in the blood of the group free of administration of each test compound.

TNF-α = TNF-α production in LPS-administered mouse; assay type: in vivo, male BALB/c mouse; settings: for TNF-α production in LPS model mouse (in words): 10 mg/kg orally 30 min before LPS; for TNF-α production (%): Table 1, 10 mg/kg orally 30 min before LPS 500 μg/kg i.p., plasma 90 min after LPS, ratio to group without test compound
Description: as §1

[3] = Evaluation of intracerebral transitivity in rat; assay type: in vivo, SD(IGS) rats; settings: for Kp at 1 h / Kp at 4 h: SD(IGS), brain, po, 3 mg/kg orally, read-out: Kp value (ratio of plasma concentration and intracerebral concentration); for Kp at 1 h: 1 hr after administration; for Kp at 4 h: 4 hr after administration; for intracerebral transitivity (in words): orally, test compound A 30 mg/kg, test compounds B and C 3 mg/kg
Description: The test compound A dissolved in 0.5% aqueous HPMC solution was orally administered at 30 mg/kg, and test compound B and test compound C dissolved in 0.5% aqueous HPMC solution were each orally administered at 3 mg/kg to SD(IGS) rats (Charles River Laboratories Japan). At 1 hr and 4 hr after the administration of the test compound, blood samples were collected, and the brain (cerebral•cerebellum) was isolated. The plasma concentration and intracerebral concentration of each test compound were measured, and the ratio (Kp value) thereof was calculated, based on which the intracerebral transitivity was evaluated.

IL-10 = IL-10 production in LPS-administered mouse; assay type: in vivo, male BALB/c mouse; settings: for IL-10 in LPS model mouse (in words): 10 mg/kg orally 30 min before LPS; for IL-10 production (%): Table 1, 10 mg/kg orally 30 min before LPS 500 μg/kg i.p., plasma 90 min after LPS, ratio to group without test compound
Description: as §1

MCP-1 = MCP-1 production in LPS-administered mouse; assay type: in vivo, male BALB/c mouse; settings: for MCP-1 production in LPS model mouse (in words): 10 mg/kg orally 30 min before LPS; for MCP-1 production (%): 10 mg/kg orally 30 min before LPS 500 μg/kg i.p., plasma 90 min after LPS, ratio to group without test compound
Description: as §1

IL-1β receptor [4] = settings: non-patent document 6; cited from earlier work
IL-1β receptor [5] = biological target: T1, IL-1β receptor (Homo sapiens, UniProt P14778); settings: clinical trial (Phase II); non-patent document 7; cited from earlier work
T1 sequence (P14778 18-569): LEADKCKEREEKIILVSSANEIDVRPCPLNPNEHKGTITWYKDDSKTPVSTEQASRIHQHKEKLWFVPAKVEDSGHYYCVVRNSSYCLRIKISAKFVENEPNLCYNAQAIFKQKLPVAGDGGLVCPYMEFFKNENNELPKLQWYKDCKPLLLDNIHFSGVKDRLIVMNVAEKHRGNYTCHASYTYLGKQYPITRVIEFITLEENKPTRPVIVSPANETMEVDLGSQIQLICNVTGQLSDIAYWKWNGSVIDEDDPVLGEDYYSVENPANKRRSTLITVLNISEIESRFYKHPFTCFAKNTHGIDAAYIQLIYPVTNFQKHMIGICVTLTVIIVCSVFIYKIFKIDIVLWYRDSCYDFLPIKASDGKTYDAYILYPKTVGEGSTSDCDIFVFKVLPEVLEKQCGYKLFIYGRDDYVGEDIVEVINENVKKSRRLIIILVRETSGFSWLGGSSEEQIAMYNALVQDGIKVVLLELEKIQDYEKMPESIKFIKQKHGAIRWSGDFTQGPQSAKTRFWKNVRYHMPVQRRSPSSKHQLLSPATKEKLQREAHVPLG

Molecule	suppression of cerebral infarction volume [1]	AUC0-last ([2]; 3 mg/kg i.v.)	AUC0-∞ ([2]; 3 mg/kg i.v.)	AUC0-last ([2]; 3 mg/kg p.o.)	AUC0-∞ ([2]; 3 mg/kg p.o.)	Cmax at 5 min ([2]; 3 mg/kg i.v.)	bioavailability [2]	Cmax ([2]; 3 mg/kg p.o.)	IL-6 production in LPS model mouse (in words) (IL-6)	TNF-α production in LPS model mouse (in words) (TNF-α)	TNF-α production (%) (TNF-α)	Kp at 1 h [3]	Kp at 4 h [3]	intracerebral transitivity (in words) [3]	IL-10 in LPS model mouse (in words) (IL-10)	IL-10 production (%) (IL-10)	MCP-1 production in LPS model mouse (in words) (MCP-1)	also measured
CC(=O)NC1(c2ccc(CN3C[C@@H]4C[C@H]3CN4c3ncccn3)cc2)CC1 [test compound B, N-[1-(4-{[(1S,4S)-5-(pyrimidin-2-yl)-2,5-diazabicyclo[2.2.1]hept-2-yl]methyl}phenyl)cyclopropyl]acetamide]	17.8%	1449.8 ± 123.3 ngh/mL	1464.6 ± 122.3 ngh/mL	1082.8 ± 171.1 ngh/mL	1105.7 ± 170.8 ngh/mL	1600 ± 58.3 ng/mL	75.5%	471 ng/mL	suppressed	suppressed	53.9%	0.8	1.3	intracerebrally transferred	increased	350.1%	suppressed	IL-6 production (%) (IL-6; Table 2): 78.7%; MCP-1 production (%) (MCP-1; Table 2): 63.9%
CC(=O)NC1(c2ccc(CN3CCN(c4ncccn4)CC3)cn2)CC1 [test compound C, N-(1-{5-[{4-(pyrimidin-2-yl)piperazin-1-yl}methyl]pyridin-2-yl}cyclopropyl)acetamide]	43.2%	10173.6 ± 3012.9 ngh/mL	10446.3 ± 2852.3 ngh/mL	8192.2 ± 3114.3 ngh/mL	8434.3 ± 2981.5 ngh/mL	4510 ± 359 ng/mL	80.7%	2000 ng/mL	suppressed	suppressed	50.6%	0.8	0.9	intracerebrally transferred	increased	401.4%	suppressed	IL-6 production (%) (IL-6; Table 3): 81%; MCP-1 production (%) (MCP-1; Table 3): 72.1%
recombinant IL-1ra: an IL-1β receptor antagonist (recombinant IL-1ra)																		cerebral ischemic disorder (IL-1β receptor [4]): alleviating action; cerebral ischemic disorder (IL-1β receptor [5]): alleviating effect
